According to patent EP0618917B1, “1'-AMINO-2- (BENZOTHIAZOLYL)METHYL]SPIRO ISOQUINOLINE-4(1H),3'-PYRROLIDINE]-1,2',3,5'(2H)-TETRONES AND ANALOGS THEREOF USEFUL AS ALDOSE REDUCTASE INHIBITORS” (AMERICAN HOME PRODUCTS CORPORATION, priority 1991, dated 1993):

System: aldose reductase
Assay: Galactitol (dulcitol) accumulation in galactosemic rats, in vivo
Conditions: percentage decrease of dulcitol accumulation vs untreated galactose-fed rats, four days; for % Lowering Galactitol Accumulation In Vivo %(D): diaphragm; for % Lowering Galactitol Accumulation In Vivo %(L): lens
Description: The aldose reductase inhibiting property of the compounds of this invention and the utilization of the compounds in preventing, diminishing and alleviating diabetic complications are demonstrable in experiments using galactosemic rats, see Dvornik et al., Science, 182, 1146 (1973). Such experiments are exemplified hereinbelow after the listing of the following general comments pertaining to these experiments: • (a) Four or more groups of six male rats, 50-70 g, Sprague-Dawley strain, were used. The first group, the control group, was fed a mixture of laboratory chow (rodent Laboratory Chow, Purina) and glucose at 20% (w/w %) concentration. An untreated galactosemic group was fed a similar diet in which galactose was substituted for glucose. The third group was fed a diet prepared by mixing a given amount of the test compound with the galactose containing diet The concentration of galactose in the diet of the treated groups was the same as that for the untreated galactosemic group. • (b) After four days, the animals were killed by euthanization. Both the lens and sciatic nerve were removed, weighed and stored frozen for polyol determination. • (c) The polyol determination was performed by a modification of the procedure of M. Kraml and L. Cosyns, Clin. Biochem., 2, 373 (1969). Only two minor reagent changes were made: (a) the rinsing mixture was an aqueous 5% (w/v) trichloroacetic acid solution and (b) the stock solution was prepared by dissolving 25 mg of dulcitol in 100 mL of an aqueous trichloroacetic acid solution. [N.B.: For each experiment the average value found in the tissue from rats fed the glucose diet was subtracted from the individual values found in the corresponding tissue in galactose-fed rats to obtain the amount of polyol accumulated.] The aldose reductase inhibiting effects of the compounds of formula (I) were also tested by employing an in vitro testing procedure similar to that described by S. Hayman and J.H. Kinoshita, J. Biol. Chem., 240, 877 (1965). In the present case the procedure of Hayman and Kinoshita was modified in that the final chromatography step was omitted in the preparation of the enzyme from bovine lens.
The figures under L, N, and D represent the percentage decrease of dulcitol accumulation in the tissues of the lens, sciatic nerve, and diaphragm, respectively for treated rats as compared to untreated rats.

## NN1C(=O)CC2(C1=O)C(=O)N(Cc1nc3cc(C(F)(F)F)ccc3s1)C(=O)c1ccc(F)cc12 (stereo not drawn) [R^1=F, R^4=H, R^5=H]
Dose 50 mg/kg/day in diet
  % Lowering Galactitol Accumulation In Vivo %(D): 97%
  % Lowering Galactitol Accumulation In Vivo %(L): 31%

## O=C1c2ccccc2C2(CC(=O)N(N=C3CCOCC3)C2=O)C(=O)N1Cc1nc2cc(C(F)(F)F)ccc2s1 (stereo not drawn) [1'-[(Tetrahydro-4H-pyran-4-ylidene)amino]-2-[[5-(trifluoromethyl)-2-benzothiazolyl]methyl]spiro[isoquinoline-4(1H),3'-pyrrolidine]-1,2',3,5'(2H)-tetrone]
Table 2, 50 mg/kg/day in diet
  % Lowering Galactitol Accumulation In Vivo %(D): 96%
  % Lowering Galactitol Accumulation In Vivo %(L): 41%

## NN1C(=O)CC2(C1=O)C(=O)N(Cc1nc3cc(C(F)(F)F)ccc3s1)C(=O)c1ccccc12 (stereo not drawn) [R^1=H, R^4=H, R^5=H, 1'-Amino-2-[[5-(trifluoromethyl)-2-benzothiazolyl]methyl]spiro[isoquinoline-4(1H),3'-pyrrolidine]-1,2',3,5'(2H)-tetrone]
Dose 50 mg/kg/day in diet
  % Lowering Galactitol Accumulation In Vivo %(D): 96%
  % Lowering Galactitol Accumulation In Vivo %(L): 61%

## O=C1c2ccccc2C2(CC(=O)N(N=C3CCCC3)C2=O)C(=O)N1Cc1nc2cc(C(F)(F)F)ccc2s1 (stereo not drawn) [1'-(Cyclopentylideneamino)-2-[[5-(trifluoromethyl)-2-benzothiazolyl]methyl]spiro[isoquinoline-4(1H),3'pyrrolidine]-1,2',3,5'(2H)-tetrone]
Table 2, 50 mg/kg/day in diet
  % Lowering Galactitol Accumulation In Vivo %(D): 95%
  % Lowering Galactitol Accumulation In Vivo %(L): 28%

## CC(=O)NN1C(=O)CC2(C(=O)N(Cc3nc4cc(C(F)(F)F)ccc4s3)C(=O)c3ccccc32)C1=O (stereo not drawn) [R^1=H, R^4=H, R^5=COCH3, N-[2-[[5-(trifluoromethyl)-2-benzothiazolyl]methyl]-2,3-dihydro-1,2',3,5'-tetraoxospiro[isoquinoline-4(1H),3'-pyrrolidine]-1'-yl] acetamide]
Dose 50 mg/kg/day in diet
  % Lowering Galactitol Accumulation In Vivo %(D): 97%
  % Lowering Galactitol Accumulation In Vivo %(L): 40%

## CC(C)=NN1C(=O)CC2(C(=O)N(Cc3nc4cc(C(F)(F)F)ccc4s3)C(=O)c3ccccc32)C1=O (stereo not drawn) [1'-[(1-Methylethylidene)amino]-2-[[5-(trifluoromethyl)-2-benzothiazolyl]methyl]spiro[isoquinoline]-1,2',3,5'(2H)-tetrone]
Table 2, 50 mg/kg/day in diet
  % Lowering Galactitol Accumulation In Vivo %(D): 97%
  % Lowering Galactitol Accumulation In Vivo %(L): 37%
